Experiment: xn = mol fraction of the nth substance listed
Details: 101 kPa, Liquid; for viscosity: Capillary tube (Ostwald / Ubbelohde) method

CC(C)c1ccccc1 [isopropylbenzene] + CCOC=O
Details	mass density, 303.15 K [kg/m3]	mass density, 308.15 K [kg/m3]	mass density, 313.15 K [kg/m3]	speed of sound, 303.15 K [m/s]	speed of sound, 308.15 K [m/s]	speed of sound, 313.15 K [m/s]	viscosity, 303.15 K [mPa·s]	viscosity, 308.15 K [mPa·s]	viscosity, 313.15 K [mPa·s]
x2 = 0	852.7	849	845.4	1280	1264	1248	0.69	0.651	0.611
x2 = 0.1603	857	853.2	849.4	1252	1240	1228	0.63	0.585	0.544
x2 = 0.3007	861.7	857.7	853.7	1228	1216	1200	0.577	0.537	0.499
x2 = 0.4234	866.5	862.4	858.3	1204	1192	1176	0.534	0.497	0.46
x2 = 0.5352	871.9	867.7	863.3	1180	1168	1152	0.5	0.463	0.431
x2 = 0.633	877.4	872.9	868.4	1160	1148	1132	0.468	0.437	0.409
x2 = 0.7203	882.8	878.2	873.7	1144	1132	1116	0.444	0.414	0.386
x2 = 0.801	888.9	884.2	879.3	1128	1116	1100	0.424	0.394	0.367
x2 = 0.8724	894.8	890	884.9	1116	1100	1084	0.407	0.382	0.359
x2 = 0.9399	901.3	896.4	891.1	1104	1088	1068	0.39	0.362	0.34

CCOC=O [ethyl methanoate] + CC(C)c1ccccc1
x1 = 1
Details	mass density [kg/m3]	speed of sound [m/s]	viscosity [mPa·s]
303.15 K	907.8	1092	0.373
308.15 K	902.6	1072	0.345
313.15 K	897.1	1052	0.324

CCOC=O [ethyl methanoate] + c1ccccc1
Details	mass density, 303.15 K [kg/m3]	mass density, 308.15 K [kg/m3]	mass density, 313.15 K [kg/m3]	speed of sound, 303.15 K [m/s]	speed of sound, 308.15 K [m/s]	speed of sound, 313.15 K [m/s]	viscosity, 303.15 K [mPa·s]	viscosity, 308.15 K [mPa·s]	viscosity, 313.15 K [mPa·s]
x1 = 0.1089	870.4	865.8	861.3	1252	1228	1208	0.529	0.499	0.468
x1 = 0.2169	873.5	868.9	864.3	1228	1208	1188	0.493	0.46	0.428
x1 = 0.3189	876.9	872.2	867.5	1208	1188	1168	0.462	0.431	0.401
x1 = 0.4239	880.8	876	871.2	1188	1168	1148	0.439	0.408	0.38
x1 = 0.5253	884.9	880.1	875.2	1172	1152	1132	0.422	0.392	0.364
x1 = 0.6233	889.1	884.2	879.2	1156	1136	1116	0.41	0.38	0.354
x1 = 0.7211	893.6	888.6	883.4	1140	1120	1100	0.399	0.37	0.348
x1 = 0.8148	898.1	893	887.7	1124	1104	1084	0.389	0.364	0.338
x1 = 0.9088	903	897.8	892.3	1108	1088	1068	0.379	0.355	0.329
x1 = 1	907.8	902.6	897.1	1092	1072	1052	0.373	0.345	0.324

— the NIST ThermoML archive (doi:10.1021/je900689m)
